What was measured:
[1] = system: p-p38, p-MK2, and p-Hsp27; assay: Immunoblot of SN38-induced p-p38, p-MK2, p-Hsp27 and apoptosis with upstream kinase inhibitors; format: cell-based, human; settings: inhibitor in combination with SN38
Description: FIG. 3A contains immunoblot images showing p-p38, p-MK2, and p-Hsp27 activation in MIA paca-2 and Pa01c cells treated with SN38 10 μM for 16 hours alone or with IRAK4 inhibitor 4 μM, HCQ 20 μM, ATM inhibitor 20 μM, ATR inhibitor 20 μM, or TAK1 inhibitor 2 μM.
FIG. 3B contains immunoblot images of MIA paca-2 and Pa01c cells treated with SN38 10 μM alone for 16 hours or in combination with TAK1 inhibitor 2 μM for 16 hours.
To investigated the mechanism by which DNA damage activates MK2 and Hsp27, PDAC cells were treated with SN38 alone or in combination with inhibitors of IRAK4 (PF06650833), TLR9 (hydroxychloroquine, or HCQ), ATM (KU55933), ATR (VE821), and TAK1 (5z-7-oxozeanol).

[2] = system: TNFα mRNA expression; assay: qPCR of cytokine expression after SN38, Pa01c; format: cell-based, human; settings: for SN38-induced induction of TNFα: inhibitor 2 μM before SN38
Description: (§1) FIG. 3D contains graphs summarizing the results of qPCR for TNFα, TNFβ, TGFβ, IL-1α, and IL-1β in Mia paca-2 (right) and Pa01c (left) cells treated with control or SN38 10 μM for 16 hours. P values from two-away ANOVA with Dunnett's multiple comparison test and error bars are mean+SEM. ***P<0.0002, ****P<0.0001.
FIG. 3F is a graph summarizing the results of qPCR showing TNFα expression in Pa01c cells following treatment with SN38 10 μM alone for 16 hours, or in combination with TAKli 2 μM or IKKi 2 μM for 24 hours prior to treatment with SN38 10 μM for 16 hours. P values from two-away ANOVA with Dunnett's multiple comparison test and error bars are mean+SEM. *P<0.0247, **P<0.0025.
(§2) RNAzol RT (Sigma) was used to isolate total RNA. cDNA was made with High Capacity cDNA reverse transcription kit (Thermo Fisher Scientific, 4368814). qPCR was performed with SYBR-Green reagent (Applied Biosciences). All experiments were performed in biological duplicates or triplicates (n=2, 3).
(§3) Because TAK1 is known to be a downstream kinase of TNF, TGFβ, and IL-1 receptors, a candidate approach was used to survey expression of TNFα/β, TGFβ, and IL-1α/β.

[3] = system: PDAC lines; assay: Recombinant TNFα treatment of PDAC lines: p-Hsp27, PARP cleavage, Annexin V; format: cell-based, human; settings: for TNFα-induced p-Hsp27 / apoptosis: inhibitor plus TNFα
[4] = system: p-Hsp27; assay: Immunoblot of p-Hsp27 with MK2 inhibitors (SN38 or UV); format: cell-based, human; settings: at baseline and following SN38 treatment
Description: FIG. 2E contains immunoblot images showing PARP cleavage of MIA paca-2 and Pa01c cells treated as in FIG. 1D.
FIG. 2H contains immunoblot images of p-p38, p-MK2, and p-Hsp27 from MIA paca-2 and Pa01c cells treated with 40 J/m2 of ultraviolet light (UV) alone or with MK2 inhibitor PF-3644022.
FIG. 2I contains immunoblot images of p-MK2 and p-Hsp27 from Pa01c cells treated with 40 J/m2 UV light, alone or with MK2 inhibitor ATI-450.
Western blotting was performed according to standard procedures. Cells grown in culture were washed twice in ice-cold 1×PBS and lysed in ice-cold RIPA buffer ([…]) containing 1× protease inhibitor (Sigma), NaVO3, Na pyrophosphate, and NaF. Protein lysates were quantified by Bradford assay and suspended in 6×SDS sample buffer, followed by boiling for 5 min at 95 C. 40 ug of protein lysate was resolved on SDS-PAGE and blotted on nitrocellulose membrane. Antibodies used included p38 MAPK (CST 8690S), p38 MAPK T180/Y182 (CST 9215S), MK2 total (CST 12155S), MK2 T334 (CST 3041S), MK2 T222 (3316S), Hsp27 total (CST 2042S), Hsp27 phos S82 (9709S), ? H2Ax (CST 9718S), JNK T183/Y185 (CST 4668), GSK3 beta phos S9 (CST 5558), ATR phos T1989 (CST 58014), ATM phos 51981 (CST 4526), AMPKα1 phos T172 (CST 2335T), and GAPDH (sc-47724). […]

[5] = system: KPPC mice; assay: KPPC mice, ATI-450 chow for two weeks, histologic analysis of pancreata; format: in vivo
Description: (§4) Tumors were formalin-fixed, paraffin-embedded, sectioned, and stained with hematoxylin and eosin (H&E). Immunohistochemistry (IHC) staining was performed using the following antibodies: p-Hsp27 S82 (CST cat #9709S), p-MK2 T334 (CST cat #3041S), p-p38 T180/Y182 (CST cat #9215S). Ten 200× or 400× power fields were analyzed per tumor independently by two individuals, and data were presented as mean+SEM of collated data. IHC sections were interpreted independently by two individual reviewers and representative data agreeable to all members were presented.
(§5) KPPC (p48-Cre/p53Flox/Flox LSL-KRASG12D) mice were created as described in previous publications. Treatment began six weeks after birth when tumors spontaneously form in vivo. FOLFIFINOX treatment was given by weekly intraperitoneal (I.P.) injection of 5-FU 25 mg/kg, irinotecan 17.5 mg/kg, and oxaliplatin 3.3 mg/kg. ATI-450 treatment was given as drug-impregnated chow, ad libitum, starting six weeks after birth; when given in combination with chemotherapy, ATI-450 chow was begun the day prior to initiation of chemotherapy.
To complement the human xenograft models, which lacked the desmoplastic tumor microenvironment and intact immune system essential for PDAC development, an autochthonous KPPC (p48-Cre; p53flox/flox; LSL-KRASG12D) mouse model was treated and observed. KPPC mice were treated with vehicle or ATI-450 ad libitum in chow starting from 6 weeks-old of age when foci of invasive PDAC start to appear. After two weeks of treatment, all mice were euthanized and their pancreata were subjected to histologic analysis.

[6] = system: KPPC mice; assay: Autochthonous KPPC model, survival and tumor analysis; format: in vivo
Description: as §4, §5
All mice were treated beginning at 6 weeks of age until humane endpoints were reached.

[7] = system: autophagy markers; assay: Autophagy markers (western blot, LC3 reporter) after SN38 with or without MK2 inhibitors; format: cell-based, human; settings: for SN38-induced p-Beclin1 and LC3-II: MK2 inhibitor with SN38
[8] = system: MIA paca-2 cells; assay: FACS Annexin V and PI staining, MK2 inhibitor with or without SN38; format: cell-based, human; settings: for apoptosis: MK2 inhibitor combined with SN38
From the text: P values from one-way ANOVA with Dunnett's multiple comparison test and error bars are mean+SEM. **P<0.0021, ****P<0.0001.

[9] = system: PDAC cells; assay: Apoptosis after SN38 with autophagy inhibition (HCQ, Beclin-1 ablation); format: cell-based, human
From the text: FIG. 4D contains immunoblot images of MIA paca-2 and Pa01c cells following treatment with SN38, HCQ, or the combination. P values from two-way ANOVA with Sidak's multiple comparison test and error bars are mean+SEM. ***P=0.0009, *P=0.035.
FIG. 4F contains immunoblot images of MIA paca-2 control cells or Beclin 1 (BECN1) knockout treated with SN38, ATI-450, or the combination.
FIG. 4G contains scatter plots (left) and a graph summarizing quantification of a FACS analysis of MIA paca-2 control cells or Beclin 1 knockout cells treated with control (DMSO) or SN38 10 μM for 24 hours; graphic quantification of annexin V positive cells on the right.

[10] = system: non-pancreatic cancer cell lines (colon, gastric, breast); assay: Apoptosis of non-pancreatic cancer cell lines with SN38 and ATI-450; format: cell-based; settings: combination SN38 and ATI-450
[11] = patients with rheumatoid arthritis; cited from earlier work
[12] = system: p-Hsp27; assay: Immunoblot of p-MK2 and p-Hsp27 after individual chemotherapy agents; format: cell-based, human; settings: for induction of p-MK2 and p-Hsp27: PDAC lines tested
Description: Western blotting was performed according to standard procedures. Cells grown in culture were washed twice in ice-cold 1×PBS and lysed in ice-cold RIPA buffer (10 nM Tris pH 7.4, 50 nM NaCl, 0.05% SDS, 0.05% Triton X-100, 0.5% sodium deoxycholate, and 10 nM EDTA) containing 1× protease inhibitor (Sigma), NaVO3, Na pyrophosphate, and NaF. Protein lysates were quantified by Bradford assay and suspended in 6×SDS sample buffer, followed by boiling for 5 min at 95 C. 40 ug of protein lysate was resolved on SDS-PAGE and blotted on nitrocellulose membrane. Antibodies used included p38 MAPK (CST 8690S), p38 MAPK T180/Y182 (CST 9215S), MK2 total (CST 12155S), MK2 T334 (CST 3041S), MK2 T222 (3316S), Hsp27 total (CST 2042S), Hsp27 phos S82 (9709S), ? H2Ax (CST 9718S), JNK T183/Y185 (CST 4668), GSK3 beta phos S9 (CST 5558), ATR phos T1989 (CST 58014), ATM phos 51981 (CST 4526), AMPKα1 phos T172 (CST 2335T), and GAPDH (sc-47724). Blots were imaged using chemiluminescent substrate (Thermo Scientific).

[13] = system: TNFα protein; assay: TNFα ELISA of Pa01c supernatant; format: cell-based, human; settings: Pa01c cells, SN38 10 μM for 16 hours
Description: FIG. 3E is a graph summarizing TNFα ELISA of Pa01c cells treated with control or SN38 10 μM for 16 hours overnight. P values from one-way ANOVA with Dunnett's multiple comparison test and error bars are mean+SEM. *P<0.0332.
as §3

[14] = system: TNFα mRNA expression; assay: qPCR of cytokine expression after SN38, MIA Paca-2; format: cell-based, human; settings: MIA Paca-2 cells, SN38 10 μM for 16 hours
Description: as §1, §2, §3

Compound: COc1cc(O)c2c(c1)/C=C/C[C@H](O)[C@H](O)C(=O)/C=C\C[C@H](C)OC2=O [5z-7-oxozeanol, (5Z)-7-Oxozeaenol]
- SN38-induced p-p38, p-MK2, and p-Hsp27 [1]: completely blocked
- apoptotic effect of SN38 [1]: potentiated
- SN38-induced induction of TNFα ([2]; Pa01c cells): abrogated

Compound: Cc1cnc(-c2ccnc(C(C)(C)O)n2)cc1-n1c(C)cc(OCc2ncc(F)cc2F)c(Cl)c1=O [ATI-450]
- TNFα-induced p-Hsp27 [3]: abrogated
- apoptosis [3]: augmented apoptosis
- p-Hsp27 [4]: replicated
- PDAC burden of pancreata ([5]; ATI-450 in chow from 6 weeks of age, two weeks): significantly lower PDAC burdens
- fractions of normal or early PanIN lesions ([5]; ATI-450 in chow, two weeks): relatively higher fractions
- tumor fibrosis by Sirius Red staining ([5]; ATI-450 in chow, two weeks): significantly less fibrotic
- progression of PDAC ([5]; single agent): significantly delayed
- PDAC lesions ([6]; addition of ATI-450 to FOLFIRINOX): almost completely ablated
- tumor histology (H&E) ([6]; mouse, in vivo): smaller but retained a significant fraction of overt PDAC
- survival ([6]; treated from 6 weeks of age until humane endpoints): improved survival significantly greater than vehicle
- p-Hsp27 (IHC), in vivo on-target effect ([6]; tumor sections): completely suppressed
- SN38-induced p-Beclin1 and LC3-II [7]: robustly suppress
- apoptosis [8]: replicated
- apoptosis ([9]; Beclin-1-ablated cells, added to SN38): only marginally increased apoptosis
- apoptosis [10]: sensitized the cells to apoptosis
- tolerability [11]: well-tolerated

Compound: Nc1ccn([C@@H]2O[C@H](CO)[C@@H](O)C2(F)F)c(=O)n1 [Gemcitabine]
- induction of p-MK2 and p-Hsp27 [12]: much lower degree

Compound: O=C(Nc1cc(C(F)(F)F)cc(C(F)(F)F)c1)c1cc(Cl)ccc1O [IMD0354]
- SN38-induced induction of TNFα ([2]; Pa01c cells): abrogated

Compound: Cc1ccc(-c2ccc3c(ccc4sc5c(c43)NC[C@@H](C)NC5=O)n2)cn1 [PF-3644022]
- p-Hsp27 [4]: abolished
- SN38-induced p-Beclin1 and LC3-II [7]: robustly suppress
- toxicity to PDAC cells ([8]; MK2 inhibitor alone): not toxic
- apoptosis [8]: significantly increased apoptosis

Compound: CC(C)(C)C(=O)N1N=CC[C@H]1c1ccccc1 [RIPK inhibitor]
- TNFα-induced p-Hsp27 [3]: did not block p-Hsp27
- apoptosis [3]: did not block p-Hsp27 or alter apoptosis
- SN38-induced p-p38, p-MK2, and p-Hsp27 [1]: not blocked

Compound: CCc1c2c(nc3ccc(O)cc13)-c1cc3c(c(=O)n1C2)COC(=O)[C@]3(O)CC [SN38]
- LC3-GFP reporter expression ([7]; PDAC cells): significantly decreased
- autophagy markers: p-ULK1 (S555), p-AMPKα (T172), p-Beclin1 (S90), p62 ([7]; western blots): markedly induced
- activation of p-Hsp27 ([12]; MIA Paca-2 cells, vehicle, 5-FU, SN38 or oxaliplatin individually): most strongly activates Hsp27
- induction of p-MK2 and p-Hsp27 [12]: potently induced
- TNFβ expression ([2]; Pa01c cells following SN38): elevated
- TNFα mRNA expression ([2]; Pa01c cells, SN38 10 μM for 16 hours): ~30 fold
- TNFα protein in supernatant [13]: increased TNFα protein
- TNFα mRNA expression [14]: ~30 fold

Compound: CCN(CCO)CCCC(C)Nc1ccnc2cc(Cl)ccc12 (stereo not drawn) [hydroxychloroquine]
- apoptosis ([9]; PDAC cells treated with SN38 and HCQ): significantly higher levels of apoptosis

Compound: TNFα
- apoptosis (PARP cleavage and Annexin V staining) ([3]; recombinant TNFα alone): induced apoptosis
- p-Hsp27 ([3]; recombinant TNFα alone): upregulated

Source: patent publication US20230087078A1, “COMPOSITIONS AND METHODS FOR THE TREATMENT OF PANCREATIC CANCER” (Washington University, priority 2020, published 2023)
